The results in this text go back to US20180273598A1, “ADHD MARKER, APPLICATION THEREOF AND KIT” (WENZHOU KANGNING HOSPITAL CO., LTD., priority 2017, published 2018).

One test deals with wild larvae zebrafish. In words: Behavior tracking of wild-type zebrafish larvae treated with GHSR-1a antagonist. Format: in vivo. As to conditions: wild-type (AB) embryos treated from 6 hpf to 3 dpf; 0.08 uM/L YIL781 (FIG. 4). The procedure: Zebrafish embryos (AB) were treated with different concentrations of YIL781 (0.08 uM, 0.4 uM, 2 uM, 10 uM, 50 uM) from 6 hpf to 3 dpf, and the behavior was detected by viewpoint behavioral recorder. The concrete scheme was as follows: [table]

For the next test, the system named is ghrelin mutant zebrafish. Briefly: Behavior tracking of ghrelin mutant zebrafish larvae treated with methylphenidate. Format: in vivo. The following applies: ghrelin-/- embryos, 10 uM for 1 h at 3 dpf (FIG. 6). The procedure: The embryos produced by ghrelin+/+, ghrelin−/− zebrafish intercross were treated with Methylphenidate at 72 hpf for 1 h. Pick a single hatched zebrafish larvae into a 96-well plate, behavior was tested as following table. After test, the genotype of the zebrafish larvae was identified by PCR and enzyme digestion.
The ghrelin^−/− embryos were treated with 10 uM methylphenidate for 1 h at 3 dpf, and the movement distance was measured by behavior recorder.

Regarding `Cc1nc2ccc(Oc3ccc(F)cc3)cc2c(=O)n1C[C@H]1CCCN(C(C)C)C1` [YIL781], the “activity phenotype of normal zebrafish larvae (behavioral recorder)” value in the test with wild larvae zebrafish is on record as “induced normal zebrafish to produce a hyperactivity phenotype”.

Regarding `COC(=O)C(c1ccccc1)C1CCCCN1` (stereo not drawn) [methylphenidate], in the test on ghrelin mutant zebrafish, the “movement distance of ghrelin mutant after treatment” value was “decreased its movement distance” and the “movement distance of treated ghrelin mutant compared with the control group” value was “no significantly different with the control group”.
